# In patent US20220395464A1, “ORALLY ADMINISTERED SOLID DOSAGE FORM DRUG” (ASCENTAWITS PHARMACEUTICALS, LTD., priority 2019, published 2022):
# “Also recorded” adds a separate entry of the source. Like-named read-outs stand apart in the source and are kept apart here.
# Assays:
# [1] = Solution stability study of AST-3424 in different solutions (HPLC content); type: physicochemical; details: for Time the API is stable in solution / Content: room temperature
# Protocol: 1.3 Solution Stability Study
# About 107.32 mg of AST-3424 (50% v/v, ethanol) was taken and placed in a 50 ml-measuring flask. Then, solvents which are an organic solvent, buffer solution or purified water, were respectively added to a scale mark. At each appointed time, 1 ml of samples was measured for HPLC analysis respectively. If the API was stable in the solution with the different pH values, a sampling appointed time was extended, for instance 5 days or more.
# (§1) In the solubility study, for a determination of sample contents, 1 ml of culture medium were measured respectively, and then centrifuged at 1000 rpm for 10 minutes. Subnatant after centrifugation were collected respectively for HPLC analysis. In the solution stability study, the samples may be provided directly for HPLC analysis.
# (§2) The contents were determined by a HPLC method: AST-3424 was used as an external standard for quantification.
# A wavelength of UVDAD detector was 230 nm. C18 column was used at a temperature of 25° C.
# [2] = Solubility study of AST-3424 (shaking at 25° C., HPLC content); type: physicochemical; details: for solubility / solubility at 1 h / solubility at 4 h / solubility at 8 h / solubility at 24 h / solubility at 48 h: thermodynamic from solid; for solubility at 1 h / solubility at 4 h / solubility at 8 h / solubility at 24 h / solubility at 48 h: read-out: Content (solubility test)
# Protocol: An appropriate amount of AST-3424 (hereinafter called active pharmaceutical ingredients or API) was taken and placed in a suitable container containing 40 ml of the mentioned-above solutions (20 ml for organic solvents) respectively until excess oil droplets of AST-3424 existed in the solution.
# Samples were put in a constant temperature shaking incubator at 25° C. and shaken at a proper speed (100 rpm). The samples were taken and checked pH values at each appointed time as specified in Table 1. Then, the samples were centrifuged (1000 rpm, 10 minutes), and added the corresponding solution or organic solvent (to dissolve the API for solubility study) to dilute to an appropriate concentration for HPLC analysis, so as to obtain solubility data. It should be noted that the dilution ratio after test was accurately recorded.
# as §1, §2
# According to the solution stability results, AST-3424 is very unstable in the acetate buffer of pH 4.5. Therefore, the phosphate buffer of pH 6.8, the phosphate buffer of pH 7.4, the alkaline borate buffer of pH 10.0, and the purified water were selected for the solubility study. An appropriate amount of AST-3424 was weighed and placed in 40 ml of medium (8 ml ethanol/propylene glycol (50:50, v/v) was used), until excess flocci was present in the solution.
# [3] = as above; type: physicochemical; details: methanol, propanol, butanol, ethylene glycol, propylene glycol, glycerol, 1,3-butanediol, 1,2-butanediol; initial investigation
# [4] = test system: H460 non-small cell lung cancer; details: cited from earlier work
# [5] = alkaline borate buffer, 25 °C, pH 10, aqueous buffer, pH 10.0 (Alkaline borate buffer)
# [6] = ethanol/propylene glycol (50:50, v/v), 25 °C, organic solvent or mixture, Ethanol/Propylene glycol (50:50, v/v)
# [7] = phosphate buffer of pH 6.8, 25 °C, pH 6.8, aqueous buffer, pH 6.8 (Phosphate buffer)
# [8] = phosphate buffer of pH 7.4, 25 °C, pH 7.4, aqueous buffer, pH 7.4 Phosphate buffer
# [9] = phosphate buffer, 25 °C, pH 7.4, aqueous buffer, pH 7.4 Phosphate buffer
# [10] = purified water, 25 °C, water, Purified water
compound,measurement,setting,value
"C[C@H](OP(=O)(N1CC1)N1CC1)c1ccc([N+](=O)[O-])c(Oc2cccc(C(=O)N(C)C)c2)c1 [AST-3424, (S)-1-(3-(3-N,N-Dimethylaminocarbonyl)phenoxy-4-nitrophenyl)-1-ethyl-N,N′-bis(ethylene) phosphoramidate]",Time the API is stable in solution,[1]; 1:1 solution of ethanol and propylene glycol,at least 72 hours
same,Content,"[1]; Acetate buffer of pH 4.5, 0 h",0.673 mg/mL
same,Content,"[1]; Acetate buffer of pH 4.5, 1 h",0.413 mg/mL
same,Content,"[1]; Acetate buffer of pH 4.5, 4 h",0.218 mg/mL
same,Content,"[1]; Acetate buffer of pH 4.5, 8 h",0.093 mg/mL
same,Content,"[1]; Acetate buffer of pH 4.5, 24 h",0.013 mg/mL
same,Content,"[1]; Alkaline borate buffer of pH 10.0, 0 h",1.265 mg/mL
same,Content,"[1]; Alkaline borate buffer of pH 10.0, 1 h",1.165 mg/mL
same,Content,"[1]; Alkaline borate buffer of pH 10.0, 4 h",1.261 mg/mL
same,Content,"[1]; Alkaline borate buffer of pH 10.0, 8 h",1.258 mg/mL
same,Content,"[1]; Alkaline borate buffer of pH 10.0, 24 h",1.261 mg/mL
same,Content,"[1]; Alkaline borate buffer of pH 10.0, 48 h",1.257 mg/mL
same,Content,"[1]; Alkaline borate buffer of pH 10.0, 72 h",1.242 mg/mL
same,Content,"[1]; Ethanol/Propylene glycol (50:50, v/v), 0 h",1.295 mg/mL
same,Content,"[1]; Ethanol/Propylene glycol (50:50, v/v), 1 h",1.287 mg/mL
same,Content,"[1]; Ethanol/Propylene glycol (50:50, v/v), 4 h",1.287 mg/mL
same,Content,"[1]; Ethanol/Propylene glycol (50:50, v/v), 8 h",1.287 mg/mL
same,Content,"[1]; Ethanol/Propylene glycol (50:50, v/v), 24 h",1.302 mg/mL
same,Content,"[1]; Ethanol/Propylene glycol (50:50, v/v), 48 h",1.284 mg/mL
same,Content,"[1]; Ethanol/Propylene glycol (50:50, v/v), 72 h",1.275 mg/mL
same,Content,"[1]; Ethanol, 0 h",1.238 mg/mL
same,Content,"[1]; Ethanol, 1 h",1.280 mg/mL
same,Content,"[1]; Ethanol, 4 h",1.246 mg/mL
same,Content,"[1]; Ethanol, 8 h",1.240 mg/mL
same,Content,"[1]; Ethanol, 24 h",1.240 mg/mL
same,Content,"[1]; Ethanol, 48 h",1.278 mg/mL
same,Content,"[1]; Ethanol, 72 h",1.236 mg/mL
same,Content,"[1]; Phosphate buffer of pH 6.8, 0 h",1.202 mg/mL
same,Content,"[1]; Phosphate buffer of pH 6.8, 1 h",1.200 mg/mL
same,Content,"[1]; Phosphate buffer of pH 6.8, 4 h",1.193 mg/mL
same,Content,"[1]; Phosphate buffer of pH 6.8, 8 h",1.185 mg/mL
same,Content,"[1]; Phosphate buffer of pH 6.8, 24 h",1.168 mg/mL
same,Content,"[1]; Phosphate buffer of pH 6.8, 48 h",1.145 mg/mL
same,Content,"[1]; Phosphate buffer of pH 6.8, 72 h",1.102 mg/mL
same,Content,"[1]; Phosphate buffer of pH 7.4, 0 h",1.267 mg/mL
same,Content,"[1]; Phosphate buffer of pH 7.4, 1 h",1.266 mg/mL
same,Content,"[1]; Phosphate buffer of pH 7.4, 4 h",1.266 mg/mL
same,Content,"[1]; Phosphate buffer of pH 7.4, 8 h",1.262 mg/mL
same,Content,"[1]; Phosphate buffer of pH 7.4, 24 h",1.262 mg/mL
same,Content,"[1]; Phosphate buffer of pH 7.4, 48 h",1.249 mg/mL
same,Content,"[1]; Phosphate buffer of pH 7.4, 72 h",1.228 mg/mL
same,Content,"[1]; Purified water, 0 h",1.186 mg/mL
same,Content,"[1]; Purified water, 1 h",1.126 mg/mL
same,Content,"[1]; Purified water, 4 h",1.056 mg/mL
same,Content,"[1]; Purified water, 8 h",1.005 mg/mL
same,Content,"[1]; Purified water, 24 h",0.918 mg/mL
same,Content,"[1]; Purified water, 48 h",0.860 mg/mL
same,Content,"[1]; Purified water, 72 h",0.810 mg/mL
same,"Solution stability, in words",[1]; acetate buffer of pH 4.5,unstable; also recorded: very unstable
same,Time the API is stable in solution,[1]; buffer of pH 7.4,at least 72 hours
same,Time the API is stable in solution,[1]; buffer of pH 10.0,at least 72 hours
same,Time the API is stable in solution,[1]; ethanol,at least 72 hours
same,"Solution stability, in words",[1]; phosphate buffer of pH 6.8,unstable; also recorded: less stable
same,"Solution stability, in words",[1]; phosphate buffer of pH 7.4,stable
same,"Solution stability, in words",[1]; purified water,unstable; also recorded: less stable
same,Time the API is stable in solution,[1]; solution of pH 6.8,at least 24 hours
same,"Solubility, descriptive terms",[2]; Purified water,Sparingly soluble
same,solubility,[2]; [5],~23 mg/mL
same,solubility at 1 h,[2]; [5],23.5 mg/mL
same,solubility at 4 h,[2]; [5],23.6 mg/mL
same,solubility at 8 h,[2]; [5],23.5 mg/mL
same,solubility at 24 h,[2]; [5],23.5 mg/mL
same,solubility at 48 h,[2]; [5],23.7 mg/mL
same,"Solubility, descriptive terms","[2]; ethanol/propylene glycol (50:50, v/v)",easily soluble; also recorded: Freely soluble (FS)
same,solubility at 1 h,[2]; [6],271 mg/mL
same,solubility at 4 h,[2]; [6],302 mg/mL
same,solubility at 8 h,[2]; [6],301 mg/mL
same,solubility at 24 h,[2]; [6],299 mg/mL
same,solubility at 48 h,[2]; [6],274 mg/mL
same,solubility,"[2]; ethanol/propylene glycol (50:50, v/v), 25 °C, organic solvent or mixture, ethanol/propylene glycol (50:50, v/v)",> 270 mg/mL
same,"Solubility, descriptive terms",[2]; pH 6.8 (Phosphate buffer),Sparingly soluble
same,"Solubility, descriptive terms",[2]; pH 7.4 (Phosphate buffer),Sparingly soluble
same,"Solubility, descriptive terms",[2]; pH 10.0 (Alkaline borate buffer),Sparingly soluble
same,solubility at 1 h,[2]; [7],23 mg/mL
same,solubility at 4 h,[2]; [7],22.9 mg/mL
same,solubility at 8 h,[2]; [7],23 mg/mL
same,solubility at 24 h,[2]; [7],22.6 mg/mL
same,solubility at 48 h,[2]; [7],22.1 mg/mL
same,solubility at 1 h,[2]; [8],23.7 mg/mL
same,solubility at 4 h,[2]; [8],23.5 mg/mL
same,solubility at 48 h,[2]; [8],23.4 mg/mL
same,solubility,"[2]; phosphate buffer, 25 °C, pH 6.8, aqueous buffer, pH 6.8 (Phosphate buffer)",~23 mg/mL
same,solubility,"[2]; phosphate buffer, 25 °C, pH 7.4, aqueous buffer, pH 7.4 (Phosphate buffer)",~23 mg/mL
same,solubility at 8 h,[2]; [9],23.6 mg/mL
same,solubility at 24 h,[2]; [9],23.7 mg/mL
same,solubility,"[2]; purified water, 25 °C, water",~20 mg/mL
same,solubility at 1 h,[2]; [10],20.9 mg/mL
same,solubility at 4 h,[2]; [10],20.1 mg/mL
same,solubility at 8 h,[2]; [10],19.7 mg/mL
same,solubility at 24 h,[2]; [10],18.8 mg/mL
same,solubility at 48 h,[2]; [10],17.8 mg/mL
same,"Solubility, in words",[3],good solubility
same,IC50,"[4]; + TH3021 (inhibitor of AKR1C3), (Reference)",141 nM
same,IC50,"[4]; without TH3021, (Reference)",< 4.57 nM
